The values that follow come from patent US6699686B1, “Modified nuclear glucocorticoid receptor, fusion protein, and DNA fragments coding for said receptor and said fusion protein” (Association pour le Development de la Recherche en …, priority 1996, dated 2004).

In this experiment the target is T1, Cre-LBD[GR(I747/T)] (Homo sapiens, UniProt P04150, I747T).
T1 construct: the region containing the mutated LBD of HG1 [aa 500-777]; Cre recombinase aa 1-343 (bacteriophage P1); F region of the human estrogen receptor (aa 553-595); expressed in transfected cells
T1 sequence (P04150 500-777 I747T): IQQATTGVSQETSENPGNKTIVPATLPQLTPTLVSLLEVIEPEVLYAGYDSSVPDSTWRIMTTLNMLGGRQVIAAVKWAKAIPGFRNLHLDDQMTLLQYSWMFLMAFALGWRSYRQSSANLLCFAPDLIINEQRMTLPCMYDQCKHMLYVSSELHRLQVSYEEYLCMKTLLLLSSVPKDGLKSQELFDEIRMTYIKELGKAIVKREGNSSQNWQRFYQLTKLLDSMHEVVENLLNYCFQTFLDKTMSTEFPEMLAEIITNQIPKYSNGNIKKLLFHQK
Description: PCR analysis of recombinase activity in RXRα+/−(LNL):Cre-GR(I747/T) line constitutively expressing the chimeric protein. It is filed as cell-based. Conditions: for recombinase activity: ligand concentration ranging from 10^−9 to 10^−6 M; for recombinase activity (191 bp PCR fragment of recombinant allele): ligand 10^−6 M, 72 hours, expression cassette integrated into the genome. As for the experimental part: The resistant clones were obtained according to the procedure described by Metzger et al. (28).
The DNA amplifications were carried out using the “Polymerase Chain Reaction” (PCR) technique according to the protocol described by Chen and Evans (60). The primers used are: SB211 and PZ105, having respectively as nucleotide sequence 5′-[…]-3′ (SEQ ID NO: 10) and 5′-[…]-3′ (SEQ ID NO: 11). After denaturation for 8 min at 94° C., 2.5 units of Taq polymerase are added. The amplification is carried out by performing 35 cycles (30 sec. at 94° C., 30 sec. at 50° C.) followed by one cycle (30 sec. at 94° C., 30 sec. at 50° C., 5 min at 72° C.), the product of which is stored at 4° C.
The products of the reactions were separated on polyacrylamide (10%) or agarose (2.5%) gel. The DNA was visualized by UV followed by ethidium bromide staining, or by Southern blotting (42).
The amplified DNA was separated on acrylamide gel and stained with ethidium bromide. Lanes 1, 2, 3 and 4 contain respectively the PCR products produced with DNA extracted from wild-type (WT) F9 cells, RXRα^+/−(LNL), RXRα^+/−(L) cells and C2RXRα^+(L)/−(L) cells (73). Lane 8 contains a size marker (1 kb ladder; GibcoBRL).
The amplified DNA was separated on agarose gel and analyzed according to the Southern technique. The amplified fragments corresponding to the wild-type and recombinant alleles were detected by hybridization with the aid of the synthetic oligonucleotide (5′-[…]-3′) (SEQ ID NO: 12), radiolabeled at the 5′ end with T4 polynucleotide kinase. The signal was visualited and quantified with the aid of a “phosphoimager” (Fujix bas2000).
The recombinant allele was detected according to the procedure described in FIG. 8. The amplified DNA was separated on agarose gel and analyzed according to the Southern technique. The amplified fragments corresponding to the recombinant allele were detected by autoradiography following hybridization with the synthetic oligonucleotide 5′-[…]-3′ (SEQ ID NO: 13), (containing a loxP site) radiolabeled with Phosphorus^32 at the 5′ end by T4 polynucleotide kinase.
The recombinase activity was tested following a treatment of these cells with Dex (10^−6 M) for 72 hours.

As to `C[C@]12C[C@H](O)[C@H]3[C@@H](CCC4=CC(=O)CC[C@@]43C)[C@@H]1CC[C@@H]2C(=O)CO` [Corticosterone, corticosterone], the “recombinase activity” value is on record as “No recombinase activity”.

For the molecule `C[C@]12CCC(=O)C=C1CC[C@@H]1[C@@H]2[C@@H](O)C[C@@]2(C)[C@H]1CC[C@]2(O)C(=O)CO` [Cortisol, cortisol], the “recombinase activity (191 bp PCR fragment of recombinant allele)” value is “inactive” and the “recombinase activity” value is listed as “No recombinase activity”.

With `C[C@@H]1C[C@H]2[C@@H]3CCC4=CC(=O)C=C[C@]4(C)[C@@]3(F)[C@@H](O)C[C@]2(C)[C@@]1(O)C(=O)CO` [Dexamethasone, dexamethasone], the “recombinase activity (191 bp PCR fragment of recombinant allele)” value (listed as Dex) is “active”.

Take `C[C@]12CCC(=O)C=C1CC[C@@H]1[C@@H]2[C@@H](O)C[C@]2(C=O)[C@@H](C(=O)CO)CC[C@@H]12` [Aldosterone, aldosterone]: the “recombinase activity” value is reported as “No recombinase activity”.
